# Results reported in patent US5508450A, “Benzopyran derivatives” (Ono Pharmaceutical Co., Ltd., priority 1989, dated 1996).
# Structures can show the parent of a compound that is named as a salt.
# Test system: Lysozyme (dimer formation with fructose)
# Assay: Inhibitory activity on Maillard reaction: formation of lysozyme dimer (lysozyme + fructose, SDS-PAGE, densitometer)
# Type: biochemical
# Conditions: lysozyme 10 mg/ml, fructose 100 mM, 0.2M sodium phosphate buffer pH 7.4, 37° C., 3 days
# Method: The inhibitory activity on Maillard reaction of the compounds of the present invention has confirmed by the screening system mentioned below. Lysozyme (10 mg/ml) and fructose (100 mM) were dissolved in 0.2M sodium phosphatic buffer solution (PH 7.4). The solution was incubated at a temperature of 37° C. for 3 days. A given volume of the reaction solution was separated using SDS-PAGE by the electrophoresis. After the electrophoresis, the SDS-PAGE was dyed by 0.2% Coomassie Brilliant Blue R-250 and then the dimer was determined by densitometer. The compounds of the present invention were added before incubation and the inhibitory activity of them against the formation of the dimer was examined in various concentrations and IC50 values were calculated.
row,Structure (SMILES),IC50
1,"COc1c(O)c(C)c2c(c1OC)OC(C)(CCOC(=O)c1ccc(NC(=N)N)cc1)CC2 (stereo not shown) [1 (d), 2-(2,5-dimethyl-6-hydroxy-7,8-dimethoxy-3,4-di-hydro-2H-benzo[1,2-b]pyran-2-yl)-ethyl4-quanidinobenzoate hydrochloride]",340 µM
2,"Cc1c(C)c2c(c(C)c1O)CCC(C)(CCOC(=O)c1cccc(NC(=N)N)c1)O2 (stereo not shown) [1 (i), 2-(6-hydroxy-2,5,7,8-tetramethyl-3,4-dihydro-2H-benzo[1,2-b]pyran-2-yl)ethyl3-quanidinobenzoate hydrochloride]",100 µM
3,"Cc1c(C)c2c(c(C)c1O)CCC(C)(CCNC(=O)/C=C/c1ccc(NC(=N)N)cc1)O2 (stereo not shown) [2 (e), N-[2-(6-hydroxy-2,5,7,8-tetramethyl-3,4-dihydro-2H-benzo[1,2-b]pyran-2-yl)-ethyl]4-quanidinocinnam-amide hydrochloride]",190 µM
4,"Cc1c(C)c2c(c(C)c1O)CCC(C)(CCOc1ccc(NC(=N)N)cc1C(F)(F)F)O2 (stereo not shown) [5 (b), 2-trifluoromethyl-4-guanidinophenyl 2-(6-hydroxy-2,5,7,8-tetra-methyl-3,4-dihydro-2H-benzo[1,2-b]pyran-2-yl)ethyl ether hydrochloride]",74 µM
5,"Cc1cc(OCCC2(C)CCc3c(C)c(O)c(C)c(C)c3O2)ccc1NC(=N)N (stereo not shown) [5 (c), 3-methyl-4-guanidino-phenyl 2-(6-hydroxy-2,5,7,8-tetramethyl-3,4-dihydro-2H-benzo[1,2-b]pyran-2-yl)ethyl ether hydrochloride]",500 µM

# The remaining compounds from weak to strong by IC50, led by results:
row,IC50,Structure (SMILES)
1,200 µM,"Cc1c(C)c2c(c(C)c1O)CCC(C)(CCOc1ccc(NC(=O)c3cccc(NC(=N)N)c3)cc1)O2 (stereo not shown) [7 (a), N-[4-[2-(6-hydroxy-2,5,7,8-tetramethyl-3,4-dihydro-2H-benzo[1,2-b]pyran-2-yl)-ethoxy]phenyl]-3-guanidino-benzamide hydrochloride]"
2,150 µM,"Cc1c2c(c3ccccc3c1O)OC(C)(CCNC(=O)c1cccc(NC(=N)N)c1)CC2 (stereo not shown) [2 (f), hydrochloride]"
3,48 µM,"CC(=O)Nc1cc(NC(=O)/C=C/c2ccc(NC(=N)N)cc2)ccc1OCCC1(C)CCc2c(C)c(O)c(C)c(C)c2O1 (stereo not shown) [7 (d), N-[3-acetoamide-4-[2-(6-hydroxy-2,5,7,8-tetramethyl-3,4-dihydro-2H-benzo[1,2-b]-pyran-2-yl)ethoxy]phenyl]-4-guanidinocinnamamidehydrochloride]"
4,30 µM,COc1cc(NC(=O)/C=C/c2ccc(NC(=N)N)cc2)ccc1OCCC1(C)CCc2c(C)c(O)c(C)c(C)c2O1 (stereo not shown) [7 (e)]
5,22 µM,"Cc1c2c(c3ccccc3c1O)OC(C)(CCOc1ccc(NC(=N)N)cc1)CC2 (stereo not shown) [5 (f), 4-guanidinophenyl 2-(2,5-dimethyl-6-hydroxy-3,4-dihydro-2H-naphtho[1,2-b]-pyran-2-yl)ethyl ether hydrochloride]"
6,19 µM,"Cc1c(C)c2c(c(C)c1O)CCC(C)(CCSc1ccc(NC(=O)c3ccc(NC(=N)N)cc3)cc1)O2 (stereo not shown) [7 (h), N-[4-[2-(6-hydroxy-2,5,7,8-tetramethyl-3,4-dihydro-2H-benzo[1,2-b]pyran-2-yl)-ethylthio]phenyl]-4-guanidinobenzamidehydrochloride]"
7,18 µM,"Cc1cc(OCCC2(C)CCc3c(C)c(O)c(C)c(C)c3O2)ccc1NC(=O)/C=C/c1ccc(NC(=N)N)cc1 (stereo not shown) [7 (f), N-[2-methyl-4-[2-(6-hydroxy-2,5,7,8-tetramethyl-3,4-dihydro-2H-benzo[1,2-b]pyran-2-yl)ethoxy]phenyl]-4-guanidinocinnamamidehydrochloride]"
8,4.8 µM,"Cc1c(C)c2c(c(C)c1O)CCC(C)(CCOc1ccc(NC(=O)/C=C/c3ccc(NC(=N)N)cc3)cc1C(F)(F)F)O2 (stereo not shown) [7 (c), N-[3-trifluoromethyl-4-[2-(6-hydroxy-2,5,7,8-tetramethyl-3,4-dihydro-2H-benzo[1,2-b]pyran-2-yl)-ethoxy]phenyl]-4-guanidino-cinnamamide hydrochloride]"
